Assay results reported in paper PMC11200585, “Prospects for Prostate Cancer Chemotherapy: Cytotoxic Evaluation and Mechanistic Insights of Quinolinequinones with ADME/PK Profile” (Biomedicines, 2024).

Experiments:
Format in all cases: cell-based, human
A549/ATCC = experiment: NCI-60 one-dose screen (non-small cell lung cancer); conditions: 10 µM single dose, 48 h
Experimental: (§1) The obtained quinolinequinones were submitted to NCI, Bethesda, USA, and, as per standard protocol of NCI, all compounds were evaluated for their antiproliferative activity at single-dose assay (10 µM concentration in DMSO) on a panel of 60 cancer cell lines derived from leukemia, non-small-cell lung, colon, CNS, melanoma, ovarian, renal, prostate, and breast, as per protocol. Tested compounds were added to the microtiter culture plates followed by incubation for 48 h at 37 °C. Sulforhodamine B (SRB), a protein-binding dye, is used for endpoint determination. The percent of the growth of the treated cells was determined in comparison to the untreated control cells and the results of each tested compound were reported. Data from one-dose experiments pertain to the percentage growth at 10 μM [16, 17, 18].

EKVX = experiment: as above; conditions: 10 µM single dose, 48 h
Experimental: as §1

HOP-62 = experiment: as above; conditions: 10 µM single dose, 48 h
Experimental: as §1

HOP-92 = experiment: as above; conditions: 10 µM single dose, 48 h
Experimental: as §1

NCI-H226 [1] = experiment: as above; conditions: 10 µM single dose, 48 h
Experimental: as §1

NCI-H23 = experiment: as above; conditions: 10 µM single dose, 48 h
Experimental: as §1

NCI-H322M [2] = experiment: as above; conditions: 10 µM single dose, 48 h
Experimental: as §1

NCI-H460 = experiment: as above; conditions: 10 µM single dose
Experimental: as §1

NCI-H522 [3] = experiment: as above; conditions: 10 µM single dose, 48 h
Experimental: as §1

HL-60(TB) = experiment: NCI-60 five-dose assay (leukemia); conditions: 48 h, SRB
SR = experiment: NCI-60 five-dose assay (leukemia); conditions: 48 h, SRB
NCI-H226 [4] = experiment: NCI-60 five-dose assay (non-small cell lung cancer); conditions: 48 h, SRB
NCI-H322M [5] = experiment: as above; conditions: 48 h, SRB
NCI-H522 [6] = experiment: as above; conditions: 48 h, SRB
COLO 205 = experiment: NCI-60 five-dose assay (colon cancer); conditions: 48 h, SRB
HCT-15 = experiment: NCI-60 five-dose assay (colon cancer); conditions: 48 h, SRB
KM12 = experiment: NCI-60 five-dose assay (colon cancer); conditions: 48 h, SRB
SF-268 = experiment: NCI-60 five-dose assay (CNS cancer); conditions: 48 h, SRB
SF-295 = experiment: NCI-60 five-dose assay (CNS cancer); conditions: 48 h, SRB
SNB-75 = experiment: NCI-60 five-dose assay (CNS cancer); conditions: 48 h, SRB
U251 = experiment: NCI-60 five-dose assay (CNS cancer); conditions: SRB
M14 = experiment: NCI-60 five-dose assay (melanoma); conditions: 48 h, SRB
MDA-MB-435 = experiment: NCI-60 five-dose assay (melanoma); conditions: 48 h, SRB
SK-MEL-2 = experiment: NCI-60 five-dose assay (melanoma); conditions: 48 h, SRB
OVCAR-4 = experiment: NCI-60 five-dose assay (ovarian cancer); conditions: 48 h, SRB
OVCAR-5 = experiment: NCI-60 five-dose assay (ovarian cancer); conditions: 48 h, SRB
A498 = experiment: NCI-60 five-dose assay (renal cancer); conditions: 48 h, SRB
CAKI-1 = experiment: NCI-60 five-dose assay (renal cancer); conditions: 48 h, SRB
RXF 393 = experiment: NCI-60 five-dose assay (renal cancer); conditions: 48 h, SRB
SN12C = experiment: NCI-60 five-dose assay (renal cancer); conditions: 48 h, SRB
TK-10 = experiment: NCI-60 five-dose assay (renal cancer); conditions: 48 h, SRB
UO-31 = experiment: NCI-60 five-dose assay (renal cancer); conditions: 48 h, SRB
BT-549 = experiment: NCI-60 five-dose assay (breast cancer); conditions: 48 h, SRB
T-47D = experiment: NCI-60 five-dose assay (breast cancer); conditions: 48 h, SRB
[7] = Homo sapiens, read-out: LC50 (the source's name)

For `CCOc1ccc(NC2=C(Cl)C(=O)c3nc(C)ccc3C2=O)cc1` [AQQ3], the “GP (growth percentage)” value (A549/ATCC) was 46.18%, the “GP (growth percentage)” value (EKVX) was −97.48% and the “GP (growth percentage)” value (HOP-62) was 72.15%. The “GP (growth percentage)” value (HOP-92) was −86.99%, the “GP (growth percentage)” value (NCI-H226 [1]) was −52.55% and the “GP (growth percentage)” value (NCI-H23) was −61.00%. For the same molecule, the “GP (growth percentage)” value (NCI-H322M [2]) was 32.37%, the “GP (growth percentage)” value (NCI-H460; 48 h) was 13.41% and the inhibition at 10 µM (NCI-H460; Homo sapiens) was 86.6%. The “GP (growth percentage)” value (NCI-H522 [3]) was −61.57%, the TGI (HL-60(TB)) was 4.18 µM and the GI50 (HL-60(TB); Homo sapiens) was 1.47 µM. For the same molecule, the CC50 (HL-60(TB); [7]) was greater than 100 µM, the TGI (SR) was greater than 100 µM and the GI50 (SR; Homo sapiens) was 1.09 µM. For the same molecule, the CC50 (SR; [7]) was greater than 100 µM, the TGI (NCI-H226 [4]) was 4.52 µM and the GI50 (NCI-H226 [4]; Homo sapiens) was 1.84 µM. It also gave an LC50 (NCI-H226 [4]; Homo sapiens) greater than 100 µM, a TGI (NCI-H322M [5]) of 3.74 µM and a GI50 (NCI-H322M [5]; Homo sapiens) of 1.68 µM. It also gave a CC50 (NCI-H322M [5]; [7]) of 8.29 µM, a TGI (NCI-H522 [6]) of 3.22 µM and a GI50 (NCI-H522 [6]; Homo sapiens) of 1.75 µM. It also gave an LC50 (NCI-H522 [6]; Homo sapiens) of 5.94 µM, a TGI (COLO 205) of 3.64 µM and a GI50 (COLO 205; Homo sapiens) of 1.86 µM. The CC50 (COLO 205; [7]) was 7.12 µM, the TGI (HCT-15) was 2.94 µM and the GI50 (HCT-15; Homo sapiens) was 1.3 µM. For the same molecule, the CC50 (HCT-15; [7]) was 6.66 µM, the TGI (KM12) was 3.07 µM and the GI50 (KM12; Homo sapiens) was 1.44 µM. It also gave a CC50 (KM12; [7]) of 6.51 µM, a TGI (SF-268) of 3.09 µM and a GI50 (SF-268; Homo sapiens) of 1.55 µM. It also gave an LC50 (concentration killing 50% of cells) (SF-268; Homo sapiens) of 6.14 µM, a TGI (SF-295) of 3.43 µM and a GI50 (SF-295; Homo sapiens) of 1.86 µM. The LC50 (50% lethal concentration) (SF-295; Homo sapiens) was 6.3 µM, the TGI (SNB-75) was 2.79 µM and the GI50 (SNB-75; Homo sapiens) was 1.46 µM. The LC50 (50% lethal concentration) (SNB-75; Homo sapiens) was 5.33 µM, the TGI (U251; 48 h) was 3.54 µM and the GI50 (U251; Homo sapiens, U-251, 48 h) was 1.8 µM. For the same molecule, the LC50 (concentration killing 50% of cells) (U251; Homo sapiens, U-251, 48 h) was 6.94 µM, the TGI (M14) was 3.23 µM and the GI50 (M14; Homo sapiens) was 1.68 µM. The LC50 (M14; Homo sapiens) was 6.21 µM, the TGI (MDA-MB-435) was 1.53 µM and the GI50 (MDA-MB-435; Homo sapiens) was 0.442 µM. It also gave a CC50 (MDA-MB-435; [7]) of 3.99 µM, a TGI (SK-MEL-2) of 3.03 µM and a GI50 (SK-MEL-2; Homo sapiens) of 1.63 µM. For the same molecule, the CC50 (SK-MEL-2; [7]) was 5.64 µM, the TGI (OVCAR-4) was 2.37 µM and the GI50 (OVCAR-4; Homo sapiens) was 1.13 µM. The LC50 (concentration killing 50% of cells) (OVCAR-4; Homo sapiens) was 4.97 µM, the TGI (OVCAR-5) was 3.46 µM and the GI50 (OVCAR-5; Homo sapiens) was 1.92 µM. The LC50 (lethal concentration 50%) (OVCAR-5; Homo sapiens) was 6.25 µM, the TGI (A498) was 5.52 µM and the GI50 (A498; Homo sapiens) was 1.56 µM. The LC50 (A498; Homo sapiens) was 24.4 µM, the TGI (CAKI-1) was 2.97 µM and the GI50 (CAKI-1; Homo sapiens) was 1.6 µM. It also gave an LC50 (lethal concentration, 50% net cell kill) (CAKI-1; Homo sapiens) of 5.51 µM, a TGI (RXF 393) of 2.96 µM and a GI50 (RXF 393; Homo sapiens) of 1.57 µM. It also gave an LC50 (RXF 393; Homo sapiens) of 5.61 µM, a TGI (SN12C) of 2.99 µM and a GI50 (SN12C; Homo sapiens) of 1.58 µM. For the same molecule, the LC50 (concentration killing 50% of starting cells) (SN12C; Homo sapiens) was 5.66 µM, the TGI (TK-10) was 3.77 µM and the GI50 (TK-10; Homo sapiens) was 2.3 µM. It also gave an LC50 (concentration killing 50% of starting cells) (TK-10; Homo sapiens) of 6.18 µM, a TGI (UO-31) of 2.75 µM and a GI50 (UO-31; Homo sapiens) of 1.43 µM. The LC50 (lethal concentration 50%) (UO-31; Homo sapiens) was 5.28 µM, the TGI (BT-549) was 2.80 µM and the GI50 (BT-549; Homo sapiens) was 1.43 µM. The LC50 (concentration giving 50% net cell kill) (BT-549; Homo sapiens) was 5.49 µM, the TGI (T-47D) was 3.91 µM and the GI50 (T-47D; Homo sapiens, T47D) was 1.01 µM. For the same molecule, the CC50 (T-47D; Homo sapiens, T47D, read-out: LC50 (the source's name)) was greater than 100 µM.
